Assay [1] deals with TLR9. Put plainly: TLR9-induced IFN-alpha in murine splenocytes (CpG1585, ELISA). It counts as cell-based, 129/Sv mice. The conditions noted are these: Mus musculus, Splenocyte; read-out: TLR9-ligand induced IFNα in murine splenocytes IC50. The protocol: 2.3 Determination of TLR9-Induced IFN-Alpha in Murine Splenocytes
(§1) Excess fat was trimmed from the spleens prior to mashing the spleen through a […] cell strainer using a plunger from a 5 ml syringe. A single cell suspension was prepared and the volume was adjusted to 15 ml in a 50 ml Falcon tube using cold PBS. Cells were centrifuged at 1500 rpm for 5 minutes at 4° C. degrees prior to removal of supernatant and re-suspension in 5 ml of red blood cell lysis buffer per spleen and incubation for 5 minutes at room temperature. Ice cold PBS (30 ml) was added to the cells prior to centrifugation at 1500 rpm for 5 minutes at 4° C. The supernatant was removed and the cells were washed twice with 40 ml of murine splenocyte culture media (MSCM). […] Cells were re-suspended in 10-20 ml of MSCM and counted using a Countess cell counter. […]
After overnight culture, cells were transferred to 96-well V-bottomed plates and centrifuged at 2000 rpm for 5 minutes at room temperature. Subsequently 150 μl of each culture supernatant was transferred to 96-well flat-bottomed plates and […] were measured using commercially available mouse IFN-alpha sandwich ELISA kit (PBL Interferon Source). […] IFN-alpha levels were measured within 5 minutes using a SpectraMax 190 Plate Reader (450 nm) and analyzed using SoftMax Pro and GraphPad Prism software.
(In an ELISA, binding on a coated surface is turned into a signal by an enzyme label.)

The subject of assay [2] is TLR9. As to the kind of experiment: TLR9-induced IL-6 in murine splenocytes (CpG1826, ELISA). It counts as cell-based, C57BL/6 mice. As to conditions: Mus musculus, Splenocyte; read-out: TLR9-ligand induced IL-6 in murine splenocytes IC50. The protocol:
2.2 Determination of TLR9-Induced IL-6 in Murine Splenocytes
as §1, with “Spleens were dissected from C57BL/6 mice immediately following euthanasia. Excess” for “Excess”
After overnight culture, cells were transferred to 96-well V-bottomed plates and centrifuged at 2000 rpm for 5 minutes at room temperature. Subsequently 150 μl of each culture supernatant was transferred to 96-well flat-bottomed plates and […] were measured using commercially available mouse IL-6 sandwich ELISA kit (R&D systems). […] IL-6 levels were measured using a SpectraMax 190 Plate Reader (450 nm) and analyzed using SoftMax Pro and GraphPad Prism software.

The structures appear in SMILES notation. Where only a bound is given, the exact number is not on record here.

What is called IC50 is the midpoint of a concentration-inhibition curve.

With `CCC(=O)N1CC[C@H](Nc2ncnc3c2CN(c2cnc(OC)c(C(F)(F)F)c2)CC3)C1` [Example 67, 1-{(S)-3-[6-(6-Methoxy-5-trifluoromethyl-pyridin-3-yl)-5,6,7,8-tetrahydro-pyrido[4,3-d]pyrimidin-4-ylamino]-pyrrolidin-1-yl}-propan-1-one], the IC50 in the assay on TLR9 [1] is > 2220 nM; in the assay on TLR9 [2] it was 96 nM.

These data come from patent publication US9949979B2, “Use of inhibitors of the activity or function of PI3K” (NOVARTIS AG, priority 2011, dated 2018).
